Reference: patent US6355799B1, “Substituted benzene compounds, process for their preparation, and herbicidal and defoliant compositions containing them” (ISK Americas Incorporated, priority 1997, dated 2002)

What was measured:
Assay type in all cases: in vivo
[1] = tested on: redroot pigweed (Amaranthus retroflexus, AMARE); assay: Pre-emerge test, greenhouse herbicide activity screening; settings: rated 14 days after application, 0 = no damage, 100 = complete death
Summary of the method: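 Compounds in acetone were track-sprayed at 187 l/ha, 15–1000 g ai/ha, onto sandy loam pots. Pre-emerge seeds were sown one day before spraying, with surface watering afterwards. Post-emerge plants were at the 2–3 leaf stage and sprayed with 0.25% v/v non-ionic surfactant. Injury was rated 0–100 at 14 days.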

[2] = tested on: barnyardgrass (Echinochloa crus-galli, ECHCG); assay: as above; settings: rated 14 days after application, 0 = no damage, 100 = complete death
Summary of the method: (§1)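 Herbicidal damage is scored 0 (none) to 100 (complete plant death) two weeks after a simulated field spray. Rates span 15–1000 g ai/ha, delivered in acetone at 187 l/ha. For post-emergence treatments, plants have 2–3 leaves and the spray carries 0.25% v/v non-ionic surfactant.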

[3] = tested on: common ragweed (Ambrosia artemisizfolia L., AMBEL); assay: as above; settings: rated 14 days after application, 0 = no damage, 100 = complete death
Summary of the method: as §1

[4] = tested on: green foxtail (Setaria viridis, SETVI); assay: as above; settings: rated 14 days after application, 0 = no damage, 100 = complete death
Summary of the method: as §1

[5] = tested on: ivyleaf morningglory (Ipomoea hederacea, IPOHE); assay: as above; settings: rated 14 days after application, 0 = no damage, 100 = complete death
Summary of the method: as §1

[6] = tested on: johnsongrass (Sorghum halepense, SORHA); assay: as above; settings: rated 14 days after application, 0 = no damage, 100 = complete death
Summary of the method: as §1

[7] = tested on: lambsquarters (Chenopodium album, CHEAL); assay: as above; settings: rated 14 days after application, 0 = no damage, 100 = complete death
Summary of the method: as §1

[8] = tested on: large crabgrass (Digitaria sanguinalis, DIGSA); assay: as above; settings: rated 14 days after application, 0 = no damage, 100 = complete death
Summary of the method: as §1

[9] = tested on: sicklepod (Cassia obtusifolia, CASOB); assay: as above; settings: rated 14 days after application, 0 = no damage, 100 = complete death
Summary of the method: as §1

[10] = tested on: velvetleaf (Abutilon theophrasti, ABUTH); assay: as above; settings: rated 14 days after application, 0 = no damage, 100 = complete death
Summary of the method: as §1

[11] = tested on: barnyardgrass (Echinochloa crus-galli, ECHCG); assay: Post-emerge test, greenhouse herbicide activity screening; settings: post-emerge, 14 days after application, rating scale 0-100
Summary of the method: (§2)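 Plants grown in 10 cm pots of sandy loam mix received acetone-dissolved compounds through a moving flat-fan nozzle. Doses ranged from 15 to 1000 g ai/ha. Pre-emerge pots were seeded one day earlier, post-emerge pots 8–21 days earlier. Fourteen days on, each pot was graded 0–100 for damage.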

[12] = tested on: green foxtail (Setaria viridis, SETVI); assay: as above; settings: post-emerge, 14 days after application, rating scale 0-100
Summary of the method: as §2

[13] = tested on: ivyleaf morningglory (Ipomoea hederacea, IPOHE); assay: as above; settings: post-emerge, 14 days after application, rating scale 0-100
Summary of the method: as §2

[14] = tested on: johnsongrass (Sorghum halepense, SORHA); assay: as above; settings: post-emerge, 14 days after application, rating scale 0-100
Summary of the method: as §2

[15] = tested on: lambsquarters (Chenopodium album, CHEAL); assay: as above; settings: post-emerge, 14 days after application, rating scale 0-100
Summary of the method: as §2

[16] = tested on: large crabgrass (Digitaria sanguinalis, DIGSA); assay: as above; settings: post-emerge, 14 days after application, rating scale 0-100
Summary of the method: as §2

[17] = tested on: redroot pigweed (Amaranthus retroflexus, AMARE); assay: as above; settings: post-emerge, 14 days after application, rating scale 0-100
Summary of the method: as §2

[18] = tested on: sicklepod (Cassia obtusifolia, CASOB); assay: as above; settings: post-emerge, 14 days after application, rating scale 0-100
Summary of the method: as §2

[19] = tested on: velvetleaf (Abutilon theophrasti, ABUTH); assay: as above; settings: post-emerge, 14 days after application, rating scale 0-100
Summary of the method: as §2

Cc1c(Cl)cc(F)c(-n2c(=O)cc(C(F)(F)F)n(C)c2=O)c1NC(=O)c1ccc2ccccc2c1 [Compound 2-122, 3-[4-chloro-6-fluoro3-methyl-2-(2-naphthoyl)aminophenyl]-1-methyl-6-trifluoromethyl-2,4(1H, 3H)-pyrimidinedione]
Pre-emerge Herbicidal Activity, phytotoxicity rating (0-100), AMARE ([1]; 63 g ai/ha): 100 | Pre-emerge Herbicidal Activity, phytotoxicity rating (0-100), AMARE ([1]; 250 g ai/ha): 100 | Pre-emerge Herbicidal Activity, phytotoxicity rating (0-100), ECHCG ([2]; 63 g ai/ha): 20 | Pre-emerge Herbicidal Activity, phytotoxicity rating (0-100), ECHCG ([2]; 250 g ai/ha): 80 | Pre-emerge Herbicidal Activity, phytotoxicity rating (0-100), AMBEL ([3]; 63 g ai/ha): 30 | Pre-emerge Herbicidal Activity, phytotoxicity rating (0-100), AMBEL ([3]; 250 g ai/ha): 90 | Pre-emerge Herbicidal Activity, phytotoxicity rating (0-100), SETVI ([4]; 63 g ai/ha): 80 | Pre-emerge Herbicidal Activity, phytotoxicity rating (0-100), SETVI ([4]; 250 g ai/ha): 100 | Pre-emerge Herbicidal Activity, phytotoxicity rating (0-100), IPOHE ([5]; 63 g ai/ha): 30 | Pre-emerge Herbicidal Activity, phytotoxicity rating (0-100), IPOHE ([5]; 250 g ai/ha): 90 | Pre-emerge Herbicidal Activity, phytotoxicity rating (0-100), SORHA ([6]; 63 g ai/ha): 30 | Pre-emerge Herbicidal Activity, phytotoxicity rating (0-100), SORHA ([6]; 250 g ai/ha): 60 | Pre-emerge Herbicidal Activity, phytotoxicity rating (0-100), CHEAL ([7]; 63 g ai/ha): 100 | Pre-emerge Herbicidal Activity, phytotoxicity rating (0-100), CHEAL ([7]; 250 g ai/ha): 100 | Pre-emerge Herbicidal Activity, phytotoxicity rating (0-100), DIGSA ([8]; 63 g ai/ha): 100 | Pre-emerge Herbicidal Activity, phytotoxicity rating (0-100), DIGSA ([8]; 250 g ai/ha): 100 | Pre-emerge Herbicidal Activity, phytotoxicity rating (0-100), CASOB ([9]; 63 g ai/ha): 30 | Pre-emerge Herbicidal Activity, phytotoxicity rating (0-100), CASOB ([9]; 250 g ai/ha): 50 | Pre-emerge Herbicidal Activity, phytotoxicity rating (0-100), ABUTH ([10]; 63 g ai/ha): 100 | Pre-emerge Herbicidal Activity, phytotoxicity rating (0-100), ABUTH ([10]; 250 g ai/ha): 100 | phytotoxicity rating ECHCG ([11]; 63 g ai/ha): 30 | phytotoxicity rating ECHCG ([11]; 250 g ai/ha): 50 | phytotoxicity rating SETVI ([12]; 63 g ai/ha): 90 | phytotoxicity rating SETVI ([12]; 250 g ai/ha): 95 | phytotoxicity rating IPOHE ([13]; 63 g ai/ha): 100 | phytotoxicity rating IPOHE ([13]; 250 g ai/ha): 80 | phytotoxicity rating SORHA ([14]; 63 g ai/ha): 30 | phytotoxicity rating SORHA ([14]; 250 g ai/ha): 60 | phytotoxicity rating CHEAL ([15]; 63 g ai/ha): 100 | phytotoxicity rating CHEAL ([15]; 250 g ai/ha): 100 | phytotoxicity rating DIGSA ([16]; 63 g ai/ha): 40 | phytotoxicity rating DIGSA ([16]; 250 g ai/ha): 60 | phytotoxicity rating AMARE ([17]; 63 g ai/ha): 100 | phytotoxicity rating AMARE ([17]; 250 g ai/ha): 100 | phytotoxicity rating CASOB ([18]; 63 g ai/ha): 100 | phytotoxicity rating CASOB ([18]; 250 g ai/ha): 100 | phytotoxicity rating ABUTH ([19]; 63 g ai/ha): 100 | phytotoxicity rating ABUTH ([19]; 250 g ai/ha): 100
